Results reported in patent US20100317845A1, “Sucrose of new confrontational polymorphs and manufacturing method thereof” (NATIONAL CENTRAL UNIVERSITY, priority 2009, published 2010).
In brackets after ≈: the same amount, converted by molar mass.

Legend:
physchem [1] = type: physicochemical; conditions: 25 °C
physchem [2] = type: physicochemical; conditions: 60 °C, water
Method: In Step S42, preheat 60 mL of furfuryl alcohol below 60° C. for approximately 15 minutes. In Step S43, mix the furfuryl alcohol and the saturated sucrose solution in a ratio of 1:1, and stir the mixed solution uniformly by a rotation speed of 500 rpm. In Step S44, maintain the mixed solution at 60° C., and crystal starts forming after approximately 4 to 5 hours. In Step S45, turn off the power of the constant-temperature water tank, and lower the temperature to room temperature naturally, and maintain this state for three days until the crystallization completes, and filter the mixed solution, and rinse the recrystallized sucrose by ethyl alcohol or acetone, and bake the crystal sucrose in a vacuum oven at 40° C. for 24 hours to obtain a Form II sucrose of a new conformational polymorph in accordance with the present invention.

SMILES: OC[C@H]1O[C@@](CO)(O[C@H]2O[C@H](CO)[C@@H](O)[C@H](O)[C@H]2O)[C@@H](O)[C@@H]1O [Form I sucrose, sucrose]
- solubility (physchem [1]): 1850 to 1950 mg/mL (≈ 5400 to 5700 mM)
- solubility (physchem [2]): 2870 mg/mL (≈ 8390 mM)
